Ki data for 13 compounds are collected here from ChEMBL document CHEMBL1255205, “Validated predictive QSAR modeling of N-aryl-oxazolidinone-5-carboxamides for anti-HIV protease activity” (Bioorg Med Chem Lett, 2010).

Each structure is given as a SMILES string.

The target in this experiment is Protease (Human immunodeficiency virus 1, UniProt Q9YQ12). Kind of experiment: Inhibition of HIV1 protease.
Protease, sequence (Q9YQ12 whole entry): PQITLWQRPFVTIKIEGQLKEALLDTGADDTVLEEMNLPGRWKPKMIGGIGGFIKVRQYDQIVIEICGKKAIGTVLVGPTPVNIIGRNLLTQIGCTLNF
With `Cc1cccc(C)c1OCC(=O)N[C@@H](Cc1ccccc1)C(O)C[C@H](Cc1ccccc1)NC(=O)[C@@H]1CN(c2cccc(C(F)(F)F)c2)C(=O)O1` (stereo partly drawn), affinity was put at a Ki of 21.6 nM.
`CC(=O)NC(C(=O)N[C@@H](Cc1ccccc1)CC(O)[C@H](Cc1ccccc1)NC(=O)[C@@H]1CN(c2ccc(F)c(F)c2)C(=O)O1)C(C)C` (stereo partly drawn) returned a Ki of 2.13 nM.
With `CC(=O)NC(C(=O)N[C@@H](Cc1ccccc1)CC(O)[C@H](Cc1ccccc1)NC(=O)[C@@H]1CN(c2cccc(C(F)(F)F)c2)C(=O)O1)C(C)C` (stereo partly drawn) the figure was 2.62 nM; with `COC(=O)NC(C(=O)N[C@@H](Cc1ccccc1)CC(O)[C@H](Cc1ccccc1)NC(=O)[C@@H]1CN(c2ccccc2)C(=O)O1)C(C)(C)C` (stereo partly drawn), 3.51 nM; with `Cc1cccc(C)c1OCC(=O)N[C@@H](Cc1ccccc1)CC(O)[C@H](Cc1ccccc1)NC(=O)[C@@H]1CN(c2ccccc2)C(=O)O1` (stereo partly drawn), 8.05 nM.
On to `CC(=O)c1cccc(N2C[C@@H](C(=O)N[C@@H](Cc3ccccc3)C(O)C[C@H](Cc3ccccc3)NC(=O)COc3c(C)cccc3C)OC2=O)c1` (stereo partly drawn), for which the Ki stood at 35.1 nM.
To `CC(=O)c1ccc(N2C[C@@H](C(=O)N[C@@H](Cc3ccccc3)C(O)C[C@H](Cc3ccccc3)NC(=O)COc3c(C)cccc3C)OC2=O)cc1` (stereo partly drawn) belongs 39.9 nM; to `Cc1cccc(C)c1OCC(=O)N[C@@H](Cc1ccccc1)C(O)C[C@H](Cc1ccccc1)NC(=O)[C@@H]1CN(c2ccccc2)C(=O)O1` (stereo partly drawn), 4730 nM.
To `O=C(Cc1ccc2c(c1)OCO2)N[C@H](CC[C@H](Cc1ccccc1)NC(=O)[C@@H]1CN(c2ccccc2)C(=O)O1)Cc1ccccc1` belongs 657 nM.
With `O=C(N[C@@H](Cc1ccccc1)C(O)C[C@H](Cc1ccccc1)NC(=O)[C@@H]1CN(c2cccc(C(F)(F)F)c2)C(=O)O1)OCc1ccccn1` (stereo partly drawn) the figure was 41.1 nM; with `COC(=O)NC(C(=O)NN(CC(C)C)CC(O)[C@H](Cc1ccccc1)NC(=O)[C@@H]1CN(c2ccccc2)C(=O)O1)C(C)(C)C` (stereo partly drawn), 7 nM; with `COC(=O)NC(C(=O)N[C@@H](Cc1ccccc1)C(O)CN(CC(C)C)NC(=O)C1CN(c2ccccc2)C(=O)O1)C(C)(C)C` (stereo partly drawn), 10.6 nM.
Take `CC(=O)c1cccc(N2CC(C(=O)NN(Cc3ccc(-c4ccccn4)cc3)CC(O)[C@H](Cc3ccccc3)NC(=O)[C@@H]3CN(c4cccc(C(C)=O)c4)C(=O)O3)OC2=O)c1` (stereo partly drawn): the Ki stood at 1090 nM.
